Source: paper PMC8308830, “Single-Agent and Fixed-Dose Combination HIV-1 Protease Inhibitor Drugs in Fission Yeast (Schizosaccharomyces pombe)” (Pathogens, 2021)
“Also recorded” adds a separate entry of the source.

Tests used:
HIV-1 PR [1] = biological target: T1, HIV-1 PR (Human immunodeficiency virus type 1 group M subtype B, UniProt P12497); test: cell-based; conditions: for EC50: PR-on RE294 cells, growth (OD650) at 72 h post-gene induction relative to PR-off cells; for decrease of EC50 of formulated drug in comparison with pure compound: fission yeast RE294, formulated drug pill vs pure compound
Experimental: The goal of this experiment was to determine the potency of each PI drug in fission yeast by the determination of EC50. […] Briefly, both HIV-1 PR-suppressing (PR-off) and PR-producing (PR-on) RE294 cells were prepared as described above. The PR-producing cells were added with a PI drug in the final concentration as indicated. Final cellular growth was measured at 72 h post-gene induction.
(A) Pure compound of PI drugs. (B) Formulated PI drug pills. HIV-1 PR gene expression was induced in RE294 cells, as described in Figure 2. […] Cellular growth was measured at 72 h post-gene induction by optical density of 650 nm using a spectrophotometer. EC50 curves were generated by using Prism 8 software showing averages with standard error bars. The measurements were repeated with three different experiments.
Briefly, both HIV-1 PR-suppressing (PR-off) or PR-producing (PR-on) RE294 cells were prepared as described above as control and for testing. The PR-producing cells were added with a PI drug in the final concentration as shown. Final cellular growth was measured at 72 h post-gene induction by optical density of 650 nm using a spectrophotometer.

HIV = conditions: human cells, antiviral activity; per-drug references in Table 2; read-out: EC50 in Human Cell; cited from earlier work
HIV-1 PR [2] = biological target: T1, HIV-1 PR; conditions: 150 μM drug; G31 cells; 20 h post-gene induction
HIV-1 PR [3] = biological target: T1, HIV-1 PR; test: Fission yeast colony formation assay, wild-type HIV-1 PR (RE294 strain); format: cell-based; parameters: HIV-1 PR is a dimeric aspartyl protease that consists of two identical subunits with 99 amino acids; expressed in transfected cells; host or cells: Schizosaccharomyces pombe strain RE294; conditions: 150 μM drug; PR-on RE294 cells; 4–5 days at 30 °C; pure chemical forms and formulated drug pills
Experimental: The effect of the above-mentioned FDA-approved PI drugs on fission yeast colony formation was tested in the presence and absence of HIV-1 PR. Specifically, a fission yeast RE294 strain, which carries a single and integrated copy of HIV-1 PR gene in the yeast chromosome, was used in this experiment. One thousand active growing and log-phase RE294 cells were evenly spread and cultured on the six-well agar wells containing the minimal and selective PMG medium in presence of 20 µM of thiamine (PR-off) or absence of thiamine (PR-on) with incubation at 30 °C for 4–5 days. […] To test the effect of a PI drug on the colony formation, 150 μM of each drug was added to the respective agar well in the presence of HIV-1 PR. Since all those drugs were dissolved in dimethyl sulfoxide (DMSO), to test the potential DMSO effect on the yeast colony formation, DMSO in the final concentration of 1% was added to the PR-on well as a mock control (Figure 2A). […]
A modified fission yeast colony-formation assay was used to investigate the effect of the PR gene expression on fission yeast cell proliferation from previously described protocol. […] The inhibitory effect of each FDA PI drug on yeast colony formation was evaluated 4–5 days after plating by comparing the growth of the colonies of the drug-treated wells to that of the mock DMSO controls.

HIV-1 PR [4] = biological target: T1, HIV-1 PR; format: cell-based; parameters: HIV-1 PR is a dimeric aspartyl protease that consists of two identical subunits with 99 amino acids; expressed in transfected cells; host or cells: Schizosaccharomyces pombe strain RE294; conditions: 150 μM drug; PR-on RE294 cells; OD650 over 72 h; formulated single-agent and combination drugs
[5] = EC50 in Fission Yeast /Pure Compound, pure compound
[6] = EC50 in Fission Yeast /Drug Formulation, compounds in drug pill forms

Row | Structure (SMILES) | EC50 (HIV-1 PR [1]; [5]) [nM] | EC50 (HIV) [nM] | decrease of EC50 of formulated drug in comparison with pure compound (HIV-1 PR [1]) [%] | further results
1 | Cc1c(O)cccc1C(=O)N[C@@H](CSc1ccccc1)[C@H](O)CN1C[C@H]2CCCC[C@H]2C[C@H]1C(=O)NC(C)(C)C [NFV, Nelfinavir] | 9700 ± 340 | 3 to 40 |  | 
2 | CC(C)CN(C[C@@H](O)[C@H](Cc1ccccc1)NC(=O)O[C@H]1CCOC1)S(=O)(=O)c1ccc(N)cc1 [APV, Amprenavir] | 55400 ± 3180 | 15 to 60 |  | 
3 | CC(C)(C)NC(=O)[C@@H]1CN(Cc2cccnc2)CCN1C[C@@H](O)C[C@@H](Cc1ccccc1)C(=O)N[C@H]1c2ccccc2C[C@H]1O [IDV, Indinavir] |  | 5 to 30 |  | 
4 | CCC[C@@]1(CCc2ccccc2)CC(O)=C([C@H](CC)c2cccc(NS(=O)(=O)c3ccc(C(F)(F)F)cn3)c2)C(=O)O1 [TPV, Tipranavir] | 7060 ± 320 | 30 to 70 |  | 
5 | COC(=O)N[C@H](C(=O)N[C@@H](Cc1ccccc1)[C@@H](O)CN(Cc1ccc(-c2ccccn2)cc1)NC(=O)[C@@H](NC(=O)OC)C(C)(C)C)C(C)(C)C [ATV, Atazanavir] | 21080 ± 70 | 2 to 5 | 22.5 | EC50 (HIV-1 PR [1]; [6]): 16300 ± 950 nM
6 | CC(C)CN(C[C@@H](O)[C@H](Cc1ccccc1)NC(=O)O[C@H]1CO[C@H]2OCC[C@H]21)S(=O)(=O)c1ccc(N)cc1 [DRV, Darunavir] |  | 1 to 10 | 28.5 | 
7 | CC(C)CN(C[C@@H](OP(=O)(O)O)[C@H](Cc1ccccc1)NC(=O)O[C@H]1CCOC1)S(=O)(=O)c1ccc(N)cc1 [FPV, Fosamprenavir] |  |  |  | EC50 (HIV-1 PR [1]; [6]): > 150000 nM; inhibitory activity against the HIV-1 PR in fission yeast (HIV-1 PR [1]; wild-type PR, fission yeast): no inhibitory activity; also recorded: did not show any inhibitory effect; inhibition of HIV-1 PR proteolytic cleavage of GFP-MA↓CA-Vpr (Vpr pattern vs GFP pattern) (HIV-1 PR [2]): no suppression; suppression of the inhibitory effect of HIV-1 PR on colony formation (HIV-1 PR [3]): did not suppress; suppression of HIV-1 PR-induced growth arrest, formulated drug pills (HIV-1 PR [4]): did not suppress
8 | Cc1cccc(C)c1OCC(=O)N[C@@H](Cc1ccccc1)[C@@H](O)C[C@H](Cc1ccccc1)NC(=O)[C@H](C(C)C)N1CCCNC1=O [LPV, Lopinavir] |  | 4 to 11 |  | 
9 | CC(C)(C)NC(=O)[C@@H]1C[C@@H]2CCCC[C@@H]2CN1C[C@@H](O)[C@H](Cc1ccccc1)NC(=O)[C@H](CC(N)=O)NC(=O)c1ccc2ccccc2n1 [SQV, Saquinavir] |  | 5 to 25 |  | 
10 | CC(C)c1nc(CN(C)C(=O)N[C@H](C(=O)N[C@@H](Cc2ccccc2)C[C@H](O)[C@H](Cc2ccccc2)NC(=O)OCc2cncs2)C(C)C)cs1 [RTV, Ritonavir] |  | 40 to 100 | 38.9 | 
